Experimental data taken from patent US9469584B2, “Method for producing butanol using extractive fermentation” (Butamax Advanced Biofuels LLC, priority 2013, dated 2016).
Counter-ions that a name gives are not always drawn. Like-named read-outs stand apart in the source and are kept apart here.

What was measured:
[1] = Density of the pure solvent; assay type: physicochemical
Protocol: Wt % of isobutanol in each layer was reported. The density of the pure solvent was also reported. […] Wt. iBuOH (mg) was calculated by wt % i-BuOH×0.5×density of pure solvent. For the aqueous solutions the density of both the pure water and salt solutions were assumed to be 1.0 g/ml. Kd was calculated both from concentration of i-BuOH in the organic/concentration of i-BuOH in the aqueous layer. It was calculated both from the w/w data and w/v data. The sum of the amounts of isobutanol found in both layers was calculated as a check on the data.

[2] = tested on: ethanologen (Ethanol Red)

Molecule | density ([1]; pure solvent) [g/mL] | further results
CCCCCCCC/C=C\CCCCCCCCO [oleyl alcohol, reference compound] | 0.849 | 
CCCCC(CC)COC(=O)CCCCC(=O)OCC(CC)CCCC (stereo not drawn) [bis(2-ethylhexyl)adipate] | 0.925 | Glucose (g/L) 5.50 hrs Run 1 ([2]; Saccharomyces cerevisiae): 0.0/0.0 g/L; Glucose (g/L) 5.50 hrs Run 2 ([2]; Saccharomyces cerevisiae): 0.0/0.0 g/L; Glucose (g/L) […] Run 1 ([2]; Saccharomyces cerevisiae): 0.0/0.0 g/L; Glucose (g/L) […] Run 2 ([2]; Saccharomyces cerevisiae): 0.0/0.0 g/L
CCCCCCOCCCCCC [Hexyl Ether] | 0.793 | 
CCCCCCC(CO)CCCC (stereo not drawn) [2-butyl-1-octanol] | 0.833 | 
CCCCCl [chlorobutane] |  | density [1]: 0.886 g/mL
CCCCCCCCCCCC(=O)OCCCC [butyl dodecanoate] | 0.855 | 
CCCCC(CC)COC(=O)/C=C\C(=O)OCC(CC)CCCC (stereo not drawn) [Bis(2-ethylhexyl) maleate] | 0.944 | 
CC(C)CCCC(C)CCO (stereo not drawn) [3,7-dimethyl-1-octanol] | 0.828 | 
Xylene |  | density [1]: 0.879 g/mL
CC(CCO)CC(C)(C)C (stereo not drawn) [3,5,5-trimethyl-1-hexanol] | 0.824 | 
CCCCC(CC)COC(=O)CCCCCCCCC(=O)OCC(CC)CCCC (stereo not drawn) [bis(2-ethylhexyl)sebacate] | 0.914 | 
CCCCCCOC(=O)c1ccccc1O [hexyl salicylate] | 1.04 | 
CCCCCCCCOC(=O)c1ccc(C(=O)OCCCCCCCC)cc1 [dioctyl terephthalate] | 0.986 | 
CCCCC(CC)COP(=O)(O)OCC(CC)CCCC (stereo not drawn) [Bis(2-ethylhexyl) phosphate] | 0.965 | Glucose (g/L) 5.00 hrs Run 1 [2]: 20.3/20.6 g/L; Glucose (g/L) 5.00 hrs Run 2 [2]: 20.3/20.6 g/L; Glucose (g/L) […] Run 1 [2]: 20.0/20.2 g/L; Glucose (g/L) […] Run 2 [2]: 20.0/20.2 g/L
CC(C)=CCCC(C)=CCCC(C)=CCO [Farnesol] | 0.89 | 
CCCCC(CC)CO (stereo not drawn) [2-Ethyl-1-hexanol] | 0.833 | 
CC1COC(=O)O1 (stereo not drawn) [propylene carbonate] | 1.2 | 
CCCCCCCCOC(=O)c1ccccc1C(=O)OCCCCCCCC [Dioctyl phthlate] |  | density [1]: 0.985 g/mL
CCCCCCCCC(CO)CCCCCC (stereo not drawn) [2-Hexyl-1-decanol (Isofol 16), 2-Hexyl-1-decanol] | 0.836 | 
CC(C)CCOCCC(C)C [i-Amyl Ether] | 0.78 | 
nonyl phenol |  | density [1]: 0.937 g/mL; Glucose (g/L) 5.00 hrs Run 1 [2]: 20.3/20.3 g/L; Glucose (g/L) 5.00 hrs Run 2 [2]: 20.3/20.3 g/L; Glucose (g/L) […] Run 1 [2]: 20.6/20.0 g/L; Glucose (g/L) […] Run 2 [2]: 20.6/20.0 g/L
